Assay [1] concerns the target human prostatic acid phosphatase (PAP) (Homo sapiens, UniProt P15309). The assay is described as follows: Time-dependent inactivation of prostatic acid phosphatase (residual activity with PNPP). The class given is biochemical. Conditions: for protection of PAP against inactivation by FMPP: competitive inhibitors of PAP added; for time-dependent inactivation of PAP: incubation with PAP (2 μg/mL), 100 mM sodium acetate buffer pH 5.0, 25° C. The procedure: Reactions were performed by incubating 1 or 9 with PAP (2 μg/mL) in 100 mM sodium acetate buffer pH 5.0 at 25° C. Residual PAP activity was determined by removing 20 μL aliquots and adding them to a 1 mL solution of 3.0 mM p-nitrophenyl phosphate (PNPP) in 100 mM sodium acetate buffer pH 5.0. After 5 minutes in PNPP, the reactions were quenched with 100 μL of 1.25N NaOH. p-Nitrophenoxide concentration was quantitated from the absorbance at 405 nm, using an extinction coefficient of 18,000 M-1 cm-1. (A) Residual PAP activity after incubation with varying concentrations of 1; 5.0 mM (filled circles), 500 μM (open squares), 125 μM (open triangles), 70 μM (filled diamonds), and 50 μM (open circles). (B) Residual PAP activity after treatment with 6.6 mM FMPP (open triangles), or 23 mM of the phosphonate (15 X Ki) (closed circles).
In this experimental, human prostatic acid phosphatase (PAP) was used as a model enzyme. […] This phosphatase is an important diagnostic marker for prostate cancer, and there is evidence that it may be involved in the regulation of androgen receptor activity in prostate cells.

Assay [2] concerns the target YOP 51 (Yersinia enterocolitica, UniProt P15273). Description: Time-dependent inactivation testing with YOP 51. Type of assay: biochemical. Particulars: incubated in a fashion similar to FIG. 1.

human prostatic acid phosphatase (PAP), sequence (P15309 33-386): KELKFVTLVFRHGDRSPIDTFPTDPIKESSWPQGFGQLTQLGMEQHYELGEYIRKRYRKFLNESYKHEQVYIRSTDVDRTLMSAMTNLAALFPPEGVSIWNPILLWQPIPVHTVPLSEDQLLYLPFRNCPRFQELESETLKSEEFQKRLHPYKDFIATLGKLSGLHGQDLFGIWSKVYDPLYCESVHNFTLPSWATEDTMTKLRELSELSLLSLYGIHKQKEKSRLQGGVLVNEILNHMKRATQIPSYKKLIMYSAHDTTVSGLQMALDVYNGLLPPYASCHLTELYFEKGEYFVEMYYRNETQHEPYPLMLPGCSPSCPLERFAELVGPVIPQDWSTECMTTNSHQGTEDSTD
YOP 51, sequence (P15273 whole entry): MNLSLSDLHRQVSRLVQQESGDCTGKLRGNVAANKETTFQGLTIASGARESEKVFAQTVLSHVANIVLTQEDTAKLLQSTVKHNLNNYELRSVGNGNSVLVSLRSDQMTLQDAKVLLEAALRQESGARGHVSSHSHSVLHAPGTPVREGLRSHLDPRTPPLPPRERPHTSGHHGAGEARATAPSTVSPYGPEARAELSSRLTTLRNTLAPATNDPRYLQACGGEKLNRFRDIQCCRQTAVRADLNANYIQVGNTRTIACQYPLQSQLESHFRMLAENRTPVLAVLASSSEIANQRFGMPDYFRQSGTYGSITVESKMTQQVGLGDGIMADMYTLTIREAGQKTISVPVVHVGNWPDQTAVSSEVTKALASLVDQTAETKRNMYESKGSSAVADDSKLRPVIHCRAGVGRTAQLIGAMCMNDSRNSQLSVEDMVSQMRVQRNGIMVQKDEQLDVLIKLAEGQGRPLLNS

Turning to `O=C(O)C(O)C(O)C(=O)O` (centres unmarked) [tartaric acid, reference compound], the “protection of PAP against inactivation by FMPP” value in assay [1] is on record as “protect against inactivation”.
On to `O=[N+]([O-])c1cc(CCl)ccc1OP(=O)(O)O` [ortho-nitro chloro analogue of FMPP], for which, in assay [1], the “potency of PAP inactivation relative to FMPP or its analogues” value was “substantially greater potency” and the “time-dependent inactivation of PAP” value is “succesfully inactivated the PAP enzyme”.
For `C=C(Br)OP(=O)(OCC)OCC` [XVI, Diethyl 1-Bromovinyl Phosphate], the “inactivation of YOP 51” value in assay [2] is “succesful inactivation of the enzyme”.
Turning to `O=P(O)(O)Oc1ccc(CBr)cc1` [bromo analogue of FMPP], the “time-dependent inactivation of PAP” value in assay [1] is recorded as “proved to inactivate the PAP enzyme”.
The same measure, in the same setting: the same measure for `O=P(O)(O)Oc1ccc(CCl)cc1` [chloro analogue of FMPP]: “proved to inactivate the PAP enzyme”.
For the compound `O=P(O)(O)O` [inorganic phosphate, reference compound], the “protection of PAP against inactivation by FMPP” value in assay [1] is “protect against inactivation”.
For `O=P(O)(O)Oc1ccc(CF)cc1` [FMPP, 4-(fluoromethyl)phenyl phosphate], in assay [1] (read-out: Ki (saturation kinetics of the inactivation process), purified PAP), the KI (inactivation) is 150 µM.

(Values after US5714361A, “Phosphatase/phosphodiesterase enzyme inhibitors and methods” (priority 1994, dated 1998).)
